According to the NIST ThermoML archive (doi:10.1021/je049955d):

Key:
[1] = xn = mol fraction of the nth substance listed; details: 298.15 K, Ring tensiometer
[2] = 298.15 K, Ring tensiometer

CC(=O)CC(C)=O [2,4-pentanedione] + O
[1]
Details	surface tension liquid-gas [mN/m]
x1 = 0.000205	70.7
x1 = 0.000412	70.1
x1 = 0.00049	69.9
x1 = 0.000578	69.5
x1 = 0.000783	69.1
x1 = 0.001016	68.3
x1 = 0.001976	65.5
x1 = 0.004045	61.4
x1 = 0.004973	59.8
x1 = 0.006054	58.3
x1 = 0.008089	55.6
x1 = 0.0103	53.3

OCCO [1,2-ethanediol] + O
[1]
Details	surface tension liquid-gas [mN/m]
x1 = 0.008251	70.8
x1 = 0.01012	70.7
x1 = 0.01185	70.4
x1 = 0.01423	70.2
x1 = 0.01585	69.7
x1 = 0.01823	69.6
x1 = 0.02	69.4
x1 = 0.02198	69.2
x1 = 0.02488	68.8
x1 = 0.02992	68.2
x1 = 0.03542	67.7
x1 = 0.0401	67.3
x1 = 0.04519	66.6
x1 = 0.101	62.5
x1 = 0.2	57.9

COC(=O)CC(C)=O [methyl 3-oxobutanoate] + O
[1]
Details	surface tension liquid-gas [mN/m]
x1 = 0.000186	71.1
x1 = 0.000411	70.4
x1 = 0.000609	69.9
x1 = 0.000793	69.3
x1 = 0.001003	68.6
x1 = 0.001822	66.6
x1 = 0.003971	62.4
x1 = 0.005842	60.2
x1 = 0.008086	57.8
x1 = 0.00996	56.1
x1 = 0.01206	54.5
x1 = 0.01404	53.2

CCOC(C)=O [ethyl acetate]
Details	surface tension liquid-gas [mN/m]
[2]	23.7

CCCCO [butan-1-ol]
Details	surface tension liquid-gas [mN/m]
[2]	24.3

CCOC(C)=O [ethyl acetate] + O
[1]
Details	surface tension liquid-gas [mN/m]
x1 = 0.000189	69.6
x1 = 0.000351	67.7
x1 = 0.000617	65.2
x1 = 0.000819	63.7
x1 = 0.000997	62.3
x1 = 0.002074	57.3
x1 = 0.003938	51.2
x1 = 0.006035	46.7
x1 = 0.008035	43.4
x1 = 0.009946	40.5
x1 = 0.01195	37.8
x1 = 0.01401	35.2

O=C1CCCC1 [cyclopentanone] + O
[1]
Details	surface tension liquid-gas [mN/m]
x1 = 0.000186	71.1
x1 = 0.000367	70.3
x1 = 0.000559	69.6
x1 = 0.000768	68.9
x1 = 0.000966	68.3
x1 = 0.001362	67
x1 = 0.002445	63.6
x1 = 0.003863	61.1
x1 = 0.006022	57.8
x1 = 0.007908	55.5
x1 = 0.009964	53.7
x1 = 0.01215	52
x1 = 0.01428	50.3

COC(=O)CC(C)=O [methyl 3-oxobutanoate]
Details	surface tension liquid-gas [mN/m]
[2]	35.7

OC1CCCC1 [cyclopentanol] + O
[1]
Details	surface tension liquid-gas [mN/m]
x1 = 0.000201	70.8
x1 = 0.000369	69.6
x1 = 0.000525	68.5
x1 = 0.000574	68
x1 = 0.000713	67.3
x1 = 0.000986	65.1
x1 = 0.001816	60.2
x1 = 0.002519	57.5
x1 = 0.002728	56.3
x1 = 0.003934	52.6
x1 = 0.005255	49.6
x1 = 0.005987	48.3
x1 = 0.008154	44.8
x1 = 0.01025	42.4
x1 = 0.01189	40.6
x1 = 0.01448	38.4

CCC#N [propanenitrile]
Details	surface tension liquid-gas [mN/m]
[2]	26.9

OC1CCCC1 [cyclopentanol]
Details	surface tension liquid-gas [mN/m]
[2]	32.8

O [water]
Details	surface tension liquid-gas [mN/m]
[2]	71.95

CCOCCOC(C)=O [2-ethoxyethyl ethanoate]
Details	surface tension liquid-gas [mN/m]
[2]	28.7

CCCCO [butan-1-ol] + O
[1]
Details	surface tension liquid-gas [mN/m]
x1 = 0.000138	69.4
x1 = 0.000235	68.8
x1 = 0.000292	68.1
x1 = 0.000392	66.9
x1 = 0.000596	64.4
x1 = 0.000778	62.5
x1 = 0.001004	60.4
x1 = 0.001457	56.5
x1 = 0.001997	53.9
x1 = 0.002872	49.2
x1 = 0.003931	45.8
x1 = 0.006003	40.7
x1 = 0.006847	38.3
x1 = 0.008156	36.4
x1 = 0.01013	33.7
x1 = 0.01204	31.1
x1 = 0.01288	29.9
x1 = 0.01411	29.1

CC(=O)CC(C)=O [2,4-pentanedione]
Details	surface tension liquid-gas [mN/m]
[2]	30.9

CCC(C)O (stereo unspecified) [butan-2-ol] + O
[1]
Details	surface tension liquid-gas [mN/m]
x1 = 0.000154	70.2
x1 = 0.000211	69.7
x1 = 0.000443	67.3
x1 = 0.000718	64.8
x1 = 0.001	62.6
x1 = 0.001994	57.5
x1 = 0.003914	50.9
x1 = 0.005882	46.4
x1 = 0.00799	43.1
x1 = 0.009938	40.6
x1 = 0.01199	38.5
x1 = 0.01394	36.8

CCC#N [propanenitrile] + O
[1]
Details	surface tension liquid-gas [mN/m]
x1 = 0.000183	71.6
x1 = 0.000368	71
x1 = 0.000563	70.3
x1 = 0.000784	69.5
x1 = 0.000963	69.2
x1 = 0.001988	66.6
x1 = 0.003895	62.9
x1 = 0.005968	59.5
x1 = 0.008178	56.6
x1 = 0.01015	54.2
x1 = 0.012	52.4
x1 = 0.01434	49.9

O=C1CCCC1 [cyclopentanone]
Details	surface tension liquid-gas [mN/m]
[2]	33

CCC(C)=O [butanone] + O
[1]
Details	surface tension liquid-gas [mN/m]
x1 = 5.71e-05	71.8
x1 = 7.54e-05	71.7
x1 = 8.96e-05	71.5
x1 = 0.000112	71.3
x1 = 0.000296	70
x1 = 0.000522	68.9
x1 = 0.000741	67.8
x1 = 0.000855	67.3
x1 = 0.000997	66.8
x1 = 0.002056	63.1
x1 = 0.00405	58.6
x1 = 0.006112	55.1
x1 = 0.008019	52.7
x1 = 0.01022	50.4
x1 = 0.01205	48.8
x1 = 0.01413	47.4

CCC(C)O (stereo unspecified) [butan-2-ol]
Details	surface tension liquid-gas [mN/m]
[2]	23.3

OCCO [1,2-ethanediol]
Details	surface tension liquid-gas [mN/m]
[2]	47.8

CCOCCOC(C)=O [2-ethoxyethyl ethanoate] + O
[1]
Details	surface tension liquid-gas [mN/m]
x1 = 0.000101	70
x1 = 0.000178	68.9
x1 = 0.00019	68.4
x1 = 0.000221	67.9
x1 = 0.000407	66
x1 = 0.00046	65.6
x1 = 0.000582	64.5
x1 = 0.000777	63.5
x1 = 0.000958	62.4
x1 = 0.001352	60.3
x1 = 0.003046	55.2
x1 = 0.005086	51.2
x1 = 0.007004	48.6
x1 = 0.01091	44.7
x1 = 0.013	43.2
x1 = 0.01497	41.4

CCC(C)=O [butanone]
Details	surface tension liquid-gas [mN/m]
[2]	24.2
